The record followed here is ChEMBL document CHEMBL3045191, “Effect of soil type on adsorption-desorption, mobility, and activity of the herbicide norflurazon” (J Agric Food Chem, 2004).

Type in all cases: functional, organism-based
For assay [1], the system named is Glycine max. The assay can be described thus: Herbicidal activity against Glycine max (soybean) grown in sandy clay loam soil at pH 7.9 assessed as chlorophyll bleaching effect on shoots compound treated to soil measured after 10 days relative to untreated control.
The subject of assay [2] is Glycine max. The assay can be described thus: Herbicidal activity against Glycine max (soybean) grown in slit loam soil at pH 7.6 assessed as chlorophyll bleaching effect on shoots compound treated to soil measured after 10 days relative to untreated control.
Assay [3] concerns Glycine max. The assay can be described thus: Herbicidal activity against Glycine max (soybean) grown in loam soil at pH 5.8 assessed as chlorophyll bleaching effect on shoots compound treated to soil measured after 10 days relative to untreated control.
Assay [4] deals with Glycine max. The assay can be described thus: Herbicidal activity against Glycine max (soybean) grown in slit loam soil at pH 6.0 assessed as chlorophyll bleaching effect on shoots compound treated to soil measured after 10 days relative to untreated control.
For assay [5], the system named is Glycine max. Nature of the assay: Herbicidal activity against Glycine max (soybean) grown in sandy soil at pH 8.0 assessed as chlorophyll bleaching effect on shoots compound treated to soil measured after 10 days relative to untreated control.
Assay [6] has as its system Glycine max. The assay can be described thus: Herbicidal activity against Glycine max (soybean) grown in sandy clay loam soil at pH 5.7 assessed as chlorophyll bleaching effect on shoots compound treated to soil measured after 10 days relative to untreated control.
Assay [7] relates to Glycine max. Nature of the assay: Herbicidal activity against Glycine max (soybean) grown in loam soil at pH 5.5 assessed as chlorophyll bleaching effect on shoots compound treated to soil measured after 10 days relative to untreated control.
Assay [8] deals with Glycine max. The assay can be described thus: Herbicidal activity against Glycine max (soybean) grown in clay soil at pH 8.0 assessed as chlorophyll bleaching effect on shoots compound treated to soil measured after 10 days relative to untreated control.

For `CNc1cnn(-c2cccc(C(F)(F)F)c2)c(=O)c1Cl` [NORFLURAZONE], the IC50 in the assay on Glycine max [1] was 0.22 mg/kg; in the assay with Glycine max [2], 1.68 mg/kg; in the assay with Glycine max [3], 1.98 mg/kg; in the assay on Glycine max [4], 1.94 mg/kg; in the assay on Glycine max [5], 0.08 mg/kg; in the assay on Glycine max [6] it was 0.43 mg/kg. The IC50 was determined as 0.87 mg/kg in the assay on Glycine max [7] and 1.04 mg/kg with Glycine max [8].
